Experimental data as given in patent US20120101109A1, “ETHANOLAMINE SALT OF N- (3-METHOXY-5-METHYLPYRAZIN-2YL) -2- (4-[1, 3, 4-OXADIAZOLE-2-YL] PHENYL) PYRIDINE-3- SULPHONAMIDE” (ASTRAZENECA AB, priority 2005, published 2012).
Marks after values point to notes of the source that are not given here.

How the values were obtained:
[1] = Intrinsic dissolution rate, fibre optic UV probe with SOTAX dissolution apparatus; assay type: physicochemical; conditions: pH 6.5 buffer, 37° C., 50 mg discs, UV at 260 nm, triplicate
Procedure: The intrinsic dissolution rate was determined by using a fibre optic UV probe, measuring at 260 nm, with a SOTAX dissolution apparatus. Each of the pots in the dissolution batch was filled with 500 ml of pH 6.5 buffer and heated to 37° C. 50 mg Of each compound was weighed out in triplicate. Each of these samples was placed into a 4 mm dye and compressed at 50 psi for 5 minutes to produce suitable discs. These discs were then placed into the dissolution bath and the UV absorbance measured at regular intervals. Standards were prepared at approximately 20 μg/ml concentrations in pH 6.5 buffer. Scans of the background and corresponding standards were taken and a standard recovery check was produced.

[2] = Stability of the salts on storage, assessed by NMR; conditions: for stability of the salt: prolonged storage at ambient (400 MHz proton NMR), ammonium salt also vacuum drying at 50° C. overnight
[3] = Solubility of the salts in water, N-methylpyrrolidinone and IMS

| IDR (intrinsic dissolution rate) [1] | stability of the salt [2] | solubility in N-methylpyrrolidinone ([3]; N-methylpyrrolidinone) | solubility in water ([3]; water) | stability of the salt assessed by NMR ([2]; 2 days at 50° C.) | Structure (SMILES) |
| --- | --- | --- | --- | --- | --- |
| 0.05 mg/min/cm^2 | – | – | – | – | COc1nc(C)cnc1NS(=O)(=O)c1cccnc1-c1ccc(-c2nnco2)cc1 [Compound (I), N-(3-methoxy-5-methylpyrazin-2-yl)-2-(4-[1,3,4-oxadiazol-2-yl]phenyl)pyridine-3-sulphonamide] |
| 1.37 ^a mg/min/cm^2 | very stable | – | – | – | COc1nc(C)cnc1[N-]S(=O)(=O)c1cccnc1-c1ccc(-c2nnco2)cc1.[Na+] [Compound (I) Sodium Salt] |
| 0.14 mg/min/cm^2 | relatively unstable | is not | very water soluble | – | COc1nc(C)cnc1NS(=O)(=O)c1cccnc1-c1ccc(-c2nnco2)cc1.N [Compound (I) Ammonium Salt] |
| 0.84 mg/min/cm^2 | – | – | – | stable | COc1nc(C)cnc1NS(=O)(=O)c1cccnc1-c1ccc(-c2nnco2)cc1.NCCO [Compound (I) Ethanolamine Salt] |
